Data: the supplement of paper PMC10307832

Experiments:
Experiment in all cases: relative viability (nuclei count vs DMSO), 5 days (fraction); higher = more cells survive
HARA = tested on: HARA
Outline: (§1)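 Lung cancer cell lines were seeded in 1536-well plates and dosed by pin tool the next day, with either a single drug or a fixed anchor-drug dose combined with five library-drug doses (not always all listed) spaced in √10 steps. Five days later, one step fixed the cells and stained their nuclei (final 0.05% Triton X-100, 1% formaldehyde, 1 ug/ml Hoechst), and nuclei were counted on 4× images. Relative viability is the nuclei count in treated wells divided by the count in vehicle wells, and each value is the median of duplicate plates.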

201T = tested on: 201T
Outline: as §1

NCI-H1792 = tested on: NCI-H1792
Outline: as §1

UMC-11 = tested on: UMC-11
Outline: as §1

NCI-H23 = tested on: NCI-H23
Outline: as §1

NCI-H2228 = tested on: NCI-H2228
Outline: as §1

RERF-LC-KJ = tested on: RERF-LC-KJ
Outline: as §1

NCI-H2085 = tested on: NCI-H2085
Outline: as §1

NCI-H1651 = tested on: NCI-H1651
Outline: as §1

LU99A = tested on: LU99A
Outline: as §1

LK-2 = tested on: LK-2
Outline: as §1

Compound `O=c1[nH]c2ccccc2n1C1CCN(CCCC(c2ccc(F)cc2)c2ccc(F)cc2)CC1` [Pimozide] + CS(=O)(=O)CCNCc1ccc(-c2ccc3ncnc(Nc4ccc(OCc5cccc(F)c5)c(Cl)c4)c3c2)o1 [Lapatinib] (partner 2 µM) has a relative viability (HARA; first compound 0.8 µM) of 0.755, a relative viability (HARA; first compound 2.53 µM) of 0.776 and a relative viability (HARA; first compound 8 µM) of 0.561. It also gave a relative viability (201T; first compound 0.08 µM) of 1.01, a relative viability (201T; first compound 0.253 µM) of 1.05 and a relative viability (201T; first compound 0.8 µM) of 1.01. The relative viability (201T; first compound 2.53 µM) was 0.995, the relative viability (201T; first compound 8 µM) was 0.926 and the relative viability (NCI-H1792; first compound 0.08 µM) was 0.888. It also gave a relative viability (NCI-H1792; first compound 0.253 µM) of 0.784, a relative viability (NCI-H1792; first compound 0.8 µM) of 0.83 and a relative viability (NCI-H1792; first compound 2.53 µM) of 0.846. The relative viability (NCI-H1792; first compound 8 µM) was 0.869, the relative viability (UMC-11; first compound 0.08 µM) was 1.07 and the relative viability (UMC-11; first compound 0.253 µM) was 0.957. For the same compound, the relative viability (UMC-11; first compound 0.8 µM) was 0.821, the relative viability (UMC-11; first compound 2.53 µM) was 0.934 and the relative viability (UMC-11; first compound 8 µM) was 0.56. It also gave a relative viability (NCI-H23; first compound 0.08 µM) of 0.938, a relative viability (NCI-H23; first compound 0.253 µM) of 1.01 and a relative viability (NCI-H23; first compound 0.8 µM) of 1.06. It also gave a relative viability (NCI-H23; first compound 2.53 µM) of 0.847, a relative viability (NCI-H23; first compound 8 µM) of 0.922 and a relative viability (NCI-H2228; first compound 0.08 µM) of 1.18. For the same compound, the relative viability (NCI-H2228; first compound 0.253 µM) was 1.2, the relative viability (NCI-H2228; first compound 0.8 µM) was 0.924 and the relative viability (NCI-H2228; first compound 2.53 µM) was 0.924. The relative viability (NCI-H2228; first compound 8 µM) was 0.669, the relative viability (RERF-LC-KJ; first compound 0.08 µM) was 0.885 and the relative viability (RERF-LC-KJ; first compound 0.253 µM) was 0.801. It also gave a relative viability (RERF-LC-KJ; first compound 0.8 µM) of 0.776, a relative viability (RERF-LC-KJ; first compound 2.53 µM) of 0.784 and a relative viability (RERF-LC-KJ; first compound 8 µM) of 0.742. It also gave a relative viability (NCI-H2085; first compound 0.08 µM) of 0.786, a relative viability (NCI-H2085; first compound 0.253 µM) of 0.711 and a relative viability (NCI-H2085; first compound 0.8 µM) of 0.704. The relative viability (NCI-H2085; first compound 2.53 µM) was 0.704, the relative viability (NCI-H2085; first compound 8 µM) was 0.698 and the relative viability (NCI-H1651; first compound 0.08 µM) was 0.967. For the same compound, the relative viability (NCI-H1651; first compound 0.253 µM) was 0.734, the relative viability (NCI-H1651; first compound 0.8 µM) was 0.934 and the relative viability (NCI-H1651; first compound 2.53 µM) was 0.809. It also gave a relative viability (NCI-H1651; first compound 8 µM) of 0.746, a relative viability (LU99A; first compound 0.08 µM) of 0.969 and a relative viability (LU99A; first compound 0.253 µM) of 0.982. For the same compound, the relative viability (LU99A; first compound 0.8 µM) was 0.757, the relative viability (LU99A; first compound 2.53 µM) was 1.03 and the relative viability (LU99A; first compound 8 µM) was 0.888. It also gave a relative viability (LK-2; first compound 0.08 µM) of 0.851, a relative viability (LK-2; first compound 0.253 µM) of 0.842 and a relative viability (LK-2; first compound 0.8 µM) of 0.731. The relative viability (LK-2; first compound 2.53 µM) was 0.78 and the relative viability (LK-2; first compound 8 µM) was 1.13.
